Tests used:
[1] = test system: atopic dermatitis/eczema in mice; assay: Atopic dermatitis/eczema model in mice (dust mite extract + SEB); format: in vivo
vitiligo model in mice = assay: Vitiligo model in mice (monobenzone); format: in vivo, C57BL/6 mice; conditions: for IL-6 level in serum / TNF-α level in serum: 3% MDI-1228 gel
Description: • (1) Normal control group (5 mice, no treatment) • (2) Vitiligo model group (8 mice, no treatment) • (3) Vitiligo model+vehicle treatment group (8 mice, blank gel preparation, dose: 1.5 g/kg, twice daily) • (4) Vitiligo model+positive control drug treatment group (8 mice, 0.03% Tacrolimus, twice daily, 50 mg per dose) • (5) Vitiligo model+MDI-1228 (0.5%) compound gel preparation group (8 mice, 1 g/kg, twice daily) • (6) Vitiligo model+MDI-1228 (1%) compound gel preparation group (8 mice, 1.5 g/kg, twice daily) • (7) Vitiligo model+MDI-1228 (3%) compound gel preparation group (8 mice, 1.5 g/kg, twice daily) • Experimental environment: Temperature 20° C.-26° C., humidity 40%-70%
Modeling: Mice were acclimated for 7 days and subjected to vitiligo modeling by removing the black hair from a 2 cm^2 area on the back of the mice and applying the medication with a spatula using moderate force. The normal control group was administrated with Vaseline 50 mg once daily; and the model group was administrated with 40% monobenzone cream 50 mg once daily for 93 consecutive days.
Model validation: One mouse from the blank group and one from the model group were selected for model validation. The criteria for hair depigmentation assessment: Observe the skin & hair depigmentation daily and record the scores. Divide the depigmented area into the treated area and the non-treated area, with a total score of 5 for each area, making a total of 10 points for each mouse. The scoring criteria for mouse skin & hair depigmentation: 0 points for no depigmentation, 1 point for depigmentation area of 0-10%, 2 points for depigmentation area of 11%-25%, 3 points for depigmentation area of 26%-50%, 4 points for depigmentation area of 51%-75%, and 5 points for depigmentation area of 76%-100%.
After a 35-days treatment administration, a 15-day visual observation of the therapeutic efficacy for vitiligo in the treated mice began, with observations conducted every 3 days (for a total of 5 times) and photographs taken during each observation. The criteria for evaluating efficacy were as follows: The depigmented areas were divided into treated and non-treated areas, with a total score of 5 for each area, making a total of 10 points for each mouse. The scoring criteria for mouse skin & hair depigmentation are: 0 points for no depigmentation, 1 point for a depigmentation area of 0-10%, 2 points for a depigmentation area of 11%-25%, 3 points for a depigmentation area of 26%-50%. 4 points for a depigmentation area of 51%-75%, and 5 points for a depigmentation area of 76%-100%.
(1) HE Staining: The removed tissue was rinsed with running water for several hours, dehydrated through a series of ethanol solutions (70%, 80%, 90%), and then treated with a mixture of pure alcohol and xylene at a ratio of 1:1 for 15 minutes, followed by xylene I for 15 minutes and xylene II for 15 minutes (until transparent). The tissue was then placed in a mixture of xylene and paraffin at a ratio of 1:1 for 15 minutes, followed by immersion with paraffin I and paraffin II each for 50-60 minutes. The tissue was embedded in paraffin and sectioned. The sections were mounted, baked, dewaxed and hydrated in distilled water. The resulting sections were then stained in hematoxylin solution for 3 minutes, differentiated in a hydrochloric acid alcohol solution for 15 seconds, slightly washed, blued in a return blue solution for 15 seconds, rinsed with running water, stained with eosin for 3 minutes, rinsed with running water, dehydrated, cleared, and mounted for microscopic examination.
(2) ELISA detection: A double-antibody one-step sandwich Enzyme-linked Immunosorbent Assay (ELISA) kit was used. A capture antibody for the mouse target indicators was pre-coated onto microplate wells, to which samples, standards, and HRP-labeled detection antibodies were added sequentially, followed by incubation and thorough washing. […]

[2] = 0.5%, 1%, positive control drug, vs. model group

`CCc1cc(O)c(F)cc1-c1ccc2c(-c3nc4c([nH]3)CN(C(=O)N3CC[C@H](O)C3)C4)n[nH]c2c1` [MDI-1228, (S)-(2-(6-(2-ethyl-5-fluoro-4-hydroxyphenyl)-1H-indazol-3-yl)-4,6-dihydropyrrolo[3,4-d]imidazol-5-(1H)-yl)(3-hydroxylpyrrolidin-1-yl)ketone] was tested, and the “Skin HE staining and toluidine blue staining” value ([1]; 0.5% MDI-1228 gel) was “a decrease in mast cells and inflammatory cells compared to the model group”, the “Skin HE staining and toluidine blue staining” value ([1]; 1% and 3% MDI-1228 gel) was “relatively significant therapeutic effects” and the “Reduction in area under the curve (AUC) of the dermatitis scores vs. model group” value ([1]; 3% MDI-1228 gel) was 23.75%. The “Number of Scratch Incidents (±SE)” value ([1]; Day 1, 0.5% MDI-1228 gel) was 24.0 ± 3.60, the “Scratch Duration (±SE)” value ([1]; Day 1, 0.5% MDI-1228 gel) was 241.00 ± 48.16 and the “Skin Erythema, Hemorrhage, Eruption, and Desquamation (Lesion Scoring) (Mean ± SE)” value (shortened to “Skin Erythema, Hemorrhage … (Mean ± SE)”) ([1]; Day 1, 0.5% MDI-1228 gel 0.7 g gel/kg twice a day) was 4.13 ± 0.55. The “Number of Scratch Incidents (±SE)” value ([1]; Day 1, 1% MDI-1228 gel) was 20.38 ± 2.08, the “Scratch Duration (±SE)” value ([1]; Day 1, 1% MDI-1228 gel) was 211.50 ± 22.88 and the “Skin Erythema, Hemorrhage … (Mean ± SE)” value ([1]; Day 1, 1% MDI-1228 gel 1 g gel/kg twice a day) was 4.75 ± 0.75. The “Number of Scratch Incidents (±SE)” value ([1]; Day 1, 3% MDI-1228 gel) was 23.00 ± 2.46, the “Scratch Duration (±SE)” value ([1]; Day 1, 3% MDI-1228 gel) was 288.00 ± 19.68 and the “Skin Erythema, Hemorrhage … (Mean ± SE)” value ([1]; Day 1, 3% MDI-1228 gel 1 g gel/kg twice a day) was 3.38 ± 0.42. For the same molecule, the “Skin Erythema, Hemorrhage … (Mean ± SE)” value ([1]; Day 4, 0.5% MDI-1228 gel 0.7 g gel/kg twice a day) was 2.88 ± 0.64, the “Skin Erythema, Hemorrhage … (Mean ± SE)” value ([1]; Day 4, 1% MDI-1228 gel 1 g gel/kg twice a day) was 3.25 ± 0.49 and the “Skin Erythema, Hemorrhage … (Mean ± SE)” value ([1]; Day 4, 3% MDI-1228 gel 1 g gel/kg twice a day) was 2.63 ± 0.46. The “Skin Erythema, Hemorrhage … (Mean ± SE)” value ([1]; Day 7, 0.5% MDI-1228 gel 0.7 g gel/kg twice a day) was 2.13 ± 0.58, the “Skin Erythema, Hemorrhage … (Mean ± SE)” value ([1]; Day 7, 1% MDI-1228 gel 1 g gel/kg twice a day) was 2.13 ± 0.30 and the “Skin Erythema, Hemorrhage … (Mean ± SE)” value ([1]; Day 7, 3% MDI-1228 gel 1 g gel/kg twice a day) was 1.75 ± 0.31. The “Number of Scratch Incidents (±SE)” value ([1]; Day 14, 0.5% MDI-1228 gel) was 30.38 ± 3.79, the “Scratch Duration (±SE)” value ([1]; Day 14, 0.5% MDI-1228 gel) was 165.63 ± 27.56 and the “Skin Erythema, Hemorrhage … (Mean ± SE)” value ([1]; Day 14, 0.5% MDI-1228 gel 0.7 g gel/kg twice a day) was 1.25 ± 0.36. The “Number of Scratch Incidents (±SE)” value ([1]; Day 14, 1% MDI-1228 gel) was 28.13 ± 2.05, the “Scratch Duration (±SE)” value ([1]; Day 14, 1% MDI-1228 gel) was 182.0 ± 25.39 and the “Skin Erythema, Hemorrhage … (Mean ± SE)” value ([1]; Day 14, 1% MDI-1228 gel 1 g gel/kg twice a day) was 1.38 ± 0.18. The “Number of Scratch Incidents (±SE)” value ([1]; Day 14, 3% MDI-1228 gel) was 23.75 ± 2.62, the “Scratch Duration (±SE)” value ([1]; Day 14, 3% MDI-1228 gel) was 173.13 ± 19.26 and the “Skin Erythema, Hemorrhage … (Mean ± SE)” value ([1]; Day 14, 3% MDI-1228 gel 1 g gel/kg twice a day) was 1.63 ± 0.26. The “Effect on inflammation in atopic dermatitis/eczema (conclusion)” value ([1]; MDI-1228 gel preparation) was “significant inhibitory effects on inflammation”, the “IFN-γ level in serum” value ([1]; MDI-1228 gel, vs. model group) was “significantly increased” and the “IL-4 level in serum” value ([1]; MDI-1228 gel, vs. model group) was “significantly reduced”. For the same molecule, the “IL-13 level in serum” value ([1]; MDI-1228 gel, vs. model group) was “significantly reduced”, the “Behavioral analysis (scratch incidents and scratch duration)” value ([1]; MDI-1228 high-dose (3% gel), tofacitinib 10 mg/kg) was “certain therapeutic effect in the behavioral analysis” and the “Clinical lesion scoring, therapeutic effect” value ([1]; gels with 0.5%, 1%, 3% MDI-1228, positive control Tofacitinib 10 mg/kg, 14 days) was “therapeutic effects similar to the positive control drug”. For the same molecule, the “TNF-α level in serum” value ([1]; high, medium, and low dose MDI-1228 gel, vs. model group) was “a reduction in TNF-α levels”, the “Skin & hair depigmentation area scores” value (vitiligo model in mice; 0.5%, 1%, 3% MDI-1228 gel twice daily, vs. model group) was “a reduction in depigmentation area scores” and the “IL-6 level in serum” value (vitiligo model in mice; [2]) was “a reduced IL-6 level”. The “TNF-α level in serum” value (vitiligo model in mice; [2]) was “a reduced TNF-α level”, the “Skin HE staining (hair follicles, melanin granules)” value (vitiligo model in mice; 1% and 3% MDI-1228 gel) was “the most significant effects” and the “IL-6 level in serum” value (vitiligo model in mice) was “the most significant reduction in IL-6 level”. The “TNF-α level in serum” value (vitiligo model in mice) was “the most significant reduction in TNF-α level”, the “Area under the curve (AUC) of depigmentation scores” value (vitiligo model in mice; 3% MDI-1228 gel 1.5 g/kg twice daily, vs. model group) was “the greatest reduction in AUC scores” and the “Therapeutic effect in vitiligo mice (conclusion)” value (vitiligo model in mice; different concentrations of MDI-1228) was “significant therapeutic effect”.

From patent US20250387388A1, “COMPOUND AS TRK INHIBITOR AND/OR RET INHIBITOR AND USE THEREOF” (Medinno Pharmaceutical Technology (Zhuhai) Co., Ltd., priority 2022, published 2025)
